# Test results taken from patent US20180163056A1, “HYDROPHILIC CURABLE COMPOSITIONS” (MITSUI CHEMICALS, INC., priority 2013, published 2018).
# Experiment: Measurement of solubility with respect to cyclohexane:toluene=5:1 (by weight)
# Type: physicochemical
# Conditions: 25° C., stirred 1 hour, 0.45 μm filter
# Procedure: 1.0 g of hydrophilic compound SPA-K, namely, potassium 3-acryloyloxypropylsulfonate (or potassium 3-sulfopropylacrylate salt) as a constituent for the concentration-gradient films according to the invention was added to 10.0 g of a mixture solution including 8.3 g of cyclohexane and 1.7 g of toluene. The mixture was stirred at 25° C. for 1 hour and was filtered through a 0.45 μm membrane filter.
# The filtrate was placed onto an evaporation dish, heated at 150° C. for 2 hours, and cooled to room temperature. The weight of the residue was measured.
# Lastly, the solubility with respect to cyclohexane:toluene=5:1 (by weight) was calculated using the following equation.
# Solubility (wt %)=Weight of residue (g)/{10.0 (g)+Weight of residue (g)}×100
structure (smiles),measurement,value
"C=CC(=O)OCCCS(=O)(=O)[O-].[K+] [SPA-K, potassium 3-acryloyloxypropylsulfonate]",Solubility with respect to cyclohexane:toluene=5:1 (by weight),< 1 wt %
